# No end group written: not given here.
# Legend:
# [1] = tested on: IL-5 spleen cells; experiment: Th1/Th2 cytokine profiling assay: IL-5; assay type: cell-based, Balb/c mice; settings: 10 micrograms per ml; Ovalbumin restimulation; 72 hours
# Source text: The Balb/c mice (originated in 1923, it is a popular strain and is used in many different research disciplines. Also classified as an inbred from the production of 20 or more successive brother-sister matings, the Balb/c mouse is albino and small in size) were immunized on Days 1, 15, and 29 with Ovalbumin (Ovalbumin is the main protein found in egg white, commonly used to stimulate an immunological reaction in test animals) in PBS (5 micrograms/injection). On day 50, spleens of the mice were harvested (3 weeks after last boost with Ovalbumin). […] Thereafter, additional Ovalbumin was added to the cells at 10 micrograms/ml for in vitro restimulation of the cells. 72 hours later, cell supernatants were harvested and assayed using the Becton Dickinson Mouse Th1/Th2 Cytokine CBA Kit.
# [2] = tested on: hepatitis B virus (HBV) ayw strain; experiment: HBV experimental assay system (HepG2-2.2.15, TaqMan PCR of HBV DNA); assay type: cell-based; settings: 10 micrograms per ml; six days; as compared to the virus control infection
# [3] = tested on: cyclic AMP generation in human peripheral blood mononuclear cells (PBMC); experiment: cAMP induction assay; assay type: cell-based; settings: single peptides, 10 min at 37° C.
# Method: The cAMP kit was used as an immunoassay for the quantitative determination of cyclic AMP generation in human peripheral blood mononuclear cells (PBMC). PBMC were placed in 96-well microtitier plates (50 microliters of cells at 4×10^6/ml) and 50 microliters of medium alone (background control), forskolin (cAMP positive control; 50 micrograms per ml), or test peptides were added. Plates were mixed and incubated for 10 min at 37° C. and the cells were lysed by the addition of 50 microliters of 3% perchloric acid. NaOH was added to neutralize the samples. Plates were centrifuged for 15 min at 2500 rpm and the supernatants removed. The supernatants (diluted 2-fold in assay buffer) were then assayed for the levels of cAMP by ELISA.
# [4] = tested on: IL-2 spleen cells; experiment: Th1/Th2 cytokine profiling assay: IL-2; assay type: cell-based, Balb/c mice; settings: 10 micrograms per ml; Ovalbumin restimulation; 72 hours
# Source text: (§1) The Balb/c mice (originated in 1923, it is a popular strain and is used in many different research disciplines. Also classified as an inbred from the production of 20 or more successive brother-sister matings, the Balb/c mouse is albino and small in size) were immunized on Days 1, 15, and 29 with Ovalbumin (Ovalbumin is the main protein found in egg white, commonly used to stimulate an immunological reaction in test animals) in PBS (5 micrograms/injection). On day 50, spleens of the mice were harvested (3 weeks after last boost with Ovalbumin). […] Thereafter, additional Ovalbumin was added to the cells at 10 micrograms/ml for in vitro restimulation of the cells. 72 hours later, cell supernatants were harvested and assayed using the Becton Dickinson Mouse Th1/Th2 Cytokine CBA Kit. This kit can be used to measure Interleukin-2 (IL-2), Interleukin-4 (IL-4), Interleukin-5 (IL-5), Interferon-γ (IFN-γ), and Tumor Necrosis Factor-α (TNF-α) protein levels in a single sample.
# [5] = tested on: Primary Human endothelial cells (HUVEC); experiment: Endothelial cell migration assay; assay type: cell-based; settings: 10 micrograms per ml, 22 hours
# [6] = tested on: IFNγ spleen cells; experiment: Th1/Th2 cytokine profiling assay: IFNγ; assay type: cell-based, Balb/c mice; settings: 10 micrograms per ml; Ovalbumin restimulation; 72 hours
# Source text: as §1
# [7] = tested on: TNF-a spleen cells; experiment: Th1/Th2 cytokine profiling assay: TNF-a; assay type: cell-based, Balb/c mice; settings: 10 micrograms per ml; Ovalbumin restimulation; 72 hours
# Source text: as §1
# [8] = tested on: IL-4 spleen cells; experiment: Th1/Th2 cytokine profiling assay: IL-4; assay type: cell-based, Balb/c mice; settings: 10 micrograms per ml; Ovalbumin restimulation; 72 hours
# Source text: as §1
substance,measurement,setting,value
Tyr-Val-Met-Gly-His-Phe-Arg-Trp-Asp-Arg-Phe-NH2 (YVMGHFRWDRF-NH2) [peptide 1],IL-5 spleen cells; TH2 response (% of control),[1],67.0 % of control
same,inhibition of HBV replication,[2],17.4%
same,induction of cAMP formation in human peripheral blood cells,[3],45.4%
same,IL-2 spleen cells (% of control),[4],101.6 % of control
same,induction of the migration of human endothelial cells,[5],12%
same,IFNγ spleen cells; TH1 response (% of control),[6],97.3 % of control
same,TNF-a spleen cells; TH1 response (% of control),[7],85.7 % of control
same,IL-4 spleen cells; TH2 response (% of control),[8],0.0 % of control
